In US12258425B2, “Peptide compositions and methods of use” (priority 2015, dated 2025):
Where a SMILES comes first, the peptide text is derived from it.

Tests used:
[1] = pH-solubility titration (visual: precipitate, turbidity, viscosity, gel); type: physicochemical
Protocol: Compound 1 obtained as a trihydrochloride salt, as described in Example 1, and was screened for aqueous solubility at different pHs, by carrying out pH titrations according to the following protocol. In some cases Met-12 was run through an identical experimental procedure to determine its solubility pH profile under the same conditions.
Compound 1 (10 mg) was dissolved in water (270-900 ? L) in a 2 mL clear plastic centrifuge tube with vortexing to give a pH ˜2.4 solution. […] This solution was then diluted with the appropriate amount of cosolvent or other excipient (sugar, surfactant etc.) to produce a clear acidic solution of 10 mg of Compound 1 in […] of the test solution at room temperature ([…]). Small aliquots of a basic solution (usually sodium hydroxide 1.0 M or 0.1 M, but sometimes other bases when investigating buffers) were added using a microliter syringe. Between additions the solution was mixed by vortexing, and the solution was inspected visually for precipitates of various types, turbidity, as a likely sign of microprecipitates, and viscosity to detect gel formation. pH measurements were taken at all these observation points. Some experiments titrated from the endogenous low pH to pH 10, but later titrations were not carried much above pH 7, or sometimes even lower.

[2] = rabbit, in vivo
Protocol: (§1) This study was conducted to determine the concentrations of Compound 1 in vitreous humor (VH) and retina tissue following intravitreal injections of male Dutch Belted rabbits. Concentrations were determined in tissues at 24, 72, 168, and 240 hours post-dose of a 50 μL bilateral intravitreal (IVT) dose.
(§2) Test system included the following: • Species/Strain/Gender: Male Dutch Belted Rabbits • Supplier: Covance Research Products, Inc. • Age Range: 4 to 5 months • Weight at Receipt (Range of • Weights): 1.51-1.85 kg • Administration Route: Intravitreal (IVT) injection • Duration of Treatment: Single Dose per eye • Formulation Concentrations: 2.0, 1.0, and 0.5 mg/mL Compound 1 triacetate • Dose Volume: 50 μL per eye
(§3) An intravitreal (IVT) injection ocular dose of 50 μL was administered to the globe of each of Dutch Belted rabbit eye.
(§4) At the respective time points the rabbits were euthanized by intravenous barbiturate overdose, and eyes were enucleated and snap frozen. Vitreous humor and retina were collected from all animals and analyzed for Compound 1 by LC-MS/MS

[3] = rat, in vivo
Protocol: (§5) Concentrations were determined in tissues at 24 (Group 1), and 72 hours (Groups 1 and 2) post-dose of a 5 μL bilateral intravitreal (IVT) dose.
(§6) Test system included the following: • Species/Strain/Gender: Norway Brown Rats • Supplier: Charles River, Inc. • Age Range: 1 to 2 months • Weight at Receipt (Range of • Weights): 165.9-181.2 g • Administration Route: Intravitreal (IVT) injection • Duration of Treatment: Single dose per eye • Formulation Concentrations: 0.06 mg/mL ONL-1204 triacetate • Dose Volume: 5 μL per eye Harvesting of Ocular Tissues
(§7) Rats were euthanized by intravenous barbiturate overdose, and eyes were enucleated and snap frozen. Vitreous humor (VH) and retina were collected from all animals and analyzed for Compound 1 by LC-MS/MS.
(§8) For each VH unknown or control blank: Weigh VH into a homogenization tube. Add 4 times the VH weight (mg) of ACN:water:1 M hydrochloric acid (70:20:10, v/v/v) (μL) to the homogenization tube. Add zirconium oxide beads, 2.8 and 1.4 mm size. Homogenize all samples on Precellys®: 5500 rpm, 3×30 second cycles, and 20 seconds between cycles, at a temperature between −10 to 0° C.
(§9) For each retina unknown or control blank: • Weigh retina tissue into a homogenization tube. • Add 4 times the tissue weight (mg) of ACN:water:1 M hydrochloric acid (70:20:10, v/v/v) (μL) to the homogenization tube. • Add zirconium oxide beads, 1.4 mm size. • Homogenize all samples on Precellys®: 5500 rpm, 3×30 second cycles, and 20 seconds between cycles, at a temperature between −10 to 0° C. Preparation of Standards, Samples, and Blanks Preparation of Calibration Stock and Working Standards
(§10) One hundred (100) μL of each vitreous humor sample with ACN: formic acid (1000:1, v/v) was then aliquoted. One hundred (100) μL of DMSO:water:formic acid (50:40:10) was added to each vitreous humor sample. The samples were vortex mixed then centrifuged for 10 minutes at 14,000 rpm (4° C.). To 50.0 μL supernatant, 100 μL of working internal standard (50,000 ng/mL APi1887 in water) (water for the blank without internal standard), and 150 μL of water were added. The samples were then vortex mixed and transferred to an autosampler plate for analysis.
(§11) In a polypropylene tube, 50 μL of Brown Norway rat unknown homogenate, bovine control blank or calibration standard Bovine homogenate was added. Fifty (50) μL of DMSO:water:formic acid (50:40:10) was added to each sample. The samples were then vortex mixed and centrifuged for 10 minutes at 14,000 rpm (4° C.). Eighty (80) μL of each sample supernatant was then aliquoted to a 96-well autosampler plate. Forty (40) μL of working internal standard (5,000 ng/mL APi1887 in water) (water for the blank without internal standard), and 120 μL of water were added. The samples were then mixed with a multichannel pipette and analyzed.

in vivo [4] = details: male, Dutch Belted, rabbit
Protocol: as §1, §2, §3, §4

in vivo [5] = details: Brown Norway, rat, 0.3 ug/eye, Mean concentration in rat retina
Protocol: as §5, §6, §7, §8, §9, §10, §11

[6] = Rabbit intravitreal ocular pharmacokinetic study (vitreous humor and retina); details: IVT in Poloxamer or Polysorbate formulations, 10 day course
Protocol: as §1, §2, §3, §4

[7] = 0.025 mg/eye, Calculated Concentration in vitreous humor
[8] = 0.05 mg/eye, Calculated Concentration in retina
[9] = 0.05 mg/eye, Calculated Concentration in vitreous humor
[10] = 0.05 mg/eye, Mean concentration in retina
[11] = 0.1 mg/eye, Calculated Concentration in retina
[12] = 0.1 mg/eye, Calculated Concentration in vitreous humor
[13] = 0.1 mg/eye, Mean concentration in retina

## CC[C@H](C)[C@H](NC(=O)[C@H](Cc1ccc(O)cc1)NC(=O)[C@H](CC(N)=O)NC(=O)[C@@H](NC(=O)[C@H](C)NC(=O)CNC(=O)[C@H](CC(C)C)NC(=O)[C@H](Cc1ccc(O)cc1)NC(=O)[C@@H](NC(=O)[C@H](Cc1cnc[nH]1)NC(=O)[C@@H](N)Cc1cnc[nH]1)[C@@H](C)CC)C(C)C)C(=O)N[C@@H](Cc1ccc(O)cc1)C(N)=O [Compound 1, His-His-Ile-Tyr-Leu-Gly-Ala-Val-Asn-Tyr-Ile-Tyr-NHz] (H-HHIYLGAVNYIY-NH2)
[1]
  Aqueous solubility (in words): poor aqueous solubility above pH˜3
  Behaviour on standing overnight: the solution gelled, and the pH dropped by about 0.2 units
[1]; pH 2.4
  solubility: ≥ 40 mg/mL
[2]; male, Dutch Belted
  Terminal t1/2 in Retina: 199 h
[2]; male, Dutch Belted, 0.025 mg/eye, 168 h
  Mean concentration in retina: 1440 ng/g
[2]
  VH AUC0-last of Group 1 (2 mg/mL) relative to Groups 2 and 3 (0.5 mg/mL): approximate four times greater AUC
[3]
  Clearance from VH in the first 24 hours: about half the drug cleared the VH
  Terminal half-life in VH: on the order of several days
In vivo [4]; [7]
  level at 24 h: 22000 ng/mL
  level at 168 h: 22300 ng/mL
  level at 240 h: 18000 ng/mL
In vivo [4]; 0.025 mg/eye, Mean concentration in retina
  tissue level at time at 168 h: 912 ng/g
In vivo [4]; [8]
  tissue level at time at 72 h: 172 ng/g
  tissue level at time at 168 h: 204 ng/g
  tissue level at time at 240 h: 109 ng/g
In vivo [4]; [9]
  level at 24 h: 44000 ng/mL
  level at 72 h: 39600 ng/mL
  level at 168 h: 25900 ng/mL
In vivo [4]; [10]
  tissue level at time at 24 h: 206 ng/g
  tissue level at time at 72 h: 95 ng/g
  tissue level at time at 168 h: 51 ng/g
  tissue level at time at 240 h: 27.3 ng/g
In vivo [4]; [11]
  level at 240 h: 112 ng/mL
  tissue level at time at 240 h: 559 ng/g
In vivo [4]; [12]
  level at 24 h: 75900 ng/mL
  level at 72 h: 125000 ng/mL
  level at 168 h: 84800 ng/mL
  level at 240 h: 79400 ng/mL
In vivo [4]; [13]
  tissue level at time at 24 h: 596 ng/g
  tissue level at time at 72 h: 1630 ng/g
  tissue level at time at 168 h: 354 ng/g
  tissue level at time at 240 h: 490 ng/g
In vivo [4]; Terminal t1/2 in Retina
  half-life: 168 h
In vivo [4]; t1/2 in VH
  half-life: > 900 h
In vivo [5]
  tissue level at time at 24 h: 1210 ng/g
  tissue level at time at 72 h: 570 ng/g
[6]
  Irritation / tolerability: no signs of irritation or tolerability issues
